From patent US9605163B2, “Aminoalcohol compounds and their use as zero or low VOC additives for paints and coatings” (ANGUS CHEMICAL COMPANY, priority 2011, dated 2017)

Experiments:
[1] = Freeze-thaw cycles of paint samples, Krebs Stormer viscosity; conditions: for Initial Viscosity (KU): paint of Table 5, additive post-added at 2 wt %, before freeze-thaw
Protocol: The paint formulations are prepared using F/T agent 1 as shown by structures below. The octanol water partition coefficient is calculated using the method of Moriguchi et al., Chem. Pharm. Bull. 40(1), 127-130 (1992). The calculated octanol-water partition coefficient for F/T-1 is 0.69. […] Paint samples are frozen at −18° C. for 17 hours and then thawed at 25° C. for 7 hours. This constitutes 1 complete freeze-thaw cycle. Viscosities are measured after each freeze-thaw cycle using a Krebs Stormer Viscometer from Sheen at room temperature. The viscosity is measured in Krebs unit (KU). The results of freeze-thaw cycles on paint samples that contain a zero-VOC compound of the invention as a post-add are listed in the Table 6. The post-add compound is mixed at 2 wt % in the paint samples. The same paint formulation is used in preparing all the samples. The paint sample without any post-add is designated as “Blank.”
The KU values below 150 as reported in Table 9 are considered acceptable, and all the values (other than that for the Blank) reported are considered very acceptable.

[2] = pKa determination by titration with H2SO4 in water; format: physicochemical; conditions: 0.5 N H2SO4, water as solvent
Protocol: pKa. pKa values are determined by titration using 0.5 NH2SO4 as titrant with water as solvent. Duplicate analyses are performed.

[3] = VOC according to ASTM D6886-rev gas chromatography method; format: physicochemical; conditions: for Percent VOC measured on the crude amine sample: ASTM D6886-rev, value attributed to impurities / residual amine; for VOC classification according to ASTM D6886-rev protocol: pure compound
Protocol: “Zero or low VOC compound” and like terms mean that a particular aminoalcohol compound of the invention passes the criteria set forth by one or more gas chromatography methods, such as ASTM D6886-rev method, ISO 11890 or GB 18581. ASTM D6886-rev method is preferred.
VOC. VOC properties are tested according to the ASTM D6886-rev method.

[4] = additive 2 wt %, cycle = −18° C. 17 hours, 25° C. 7 hours

OCCOCCO [Diethylene Glycol, diethylene glycol, reference compound]
Viscosity after Freeze-Thaw cycles (KU), 5th cycle [1, 4]: 98 KU | Initial Viscosity (KU) [1]: 91.0 KU

CC(O)CNC(CO)(CO)CO (stereo not shown) [TA-1PO, 2-(hydroxymethyl)-2-((2-hydroxypropyl)amino)propane-1,3-diol]
pKa [2]: 8

CCC(O)CNC(CC)(CO)CO (stereo not shown) [AEPD-1BO, 2-ethyl-2-((2-hydroxybutyl)amino)propane-1,3-diol]
pKa [2]: 8.7

CC(C)(C)CC(C)(C)N(CC(O)CO)CC(O)CO (stereo not shown) [3,3′-((2,4,4-trimethylpentan-2-yl)azanediyl)bis(propane-1,2-diol)]
Percent VOC measured on the crude amine sample [3]: 3.6% | VOC classification according to ASTM D6886-rev protocol [3]: zero VOC | pKa [2]: 9

CC(C)(C)CC(C)(C)N(CC(O)CO)CC(O)CO (stereo not shown) [F/T Agent 1]
Viscosity after Freeze-Thaw cycles (KU), 1st cycle [1, 4]: 92.6 KU | Viscosity after Freeze-Thaw cycles (KU), 2nd cycle [1, 4]: 100.8 KU | Viscosity after Freeze-Thaw cycles (KU), 3rd cycle [1, 4]: 103.1 KU | Viscosity after Freeze-Thaw cycles (KU), 4th cycle [1, 4]: 104.2 KU | Viscosity after Freeze-Thaw cycles (KU), 5th cycle [1, 4]: 105.3 KU | Freeze-thaw survival of paint samples ([1]; additive as post-add): survive five freeze-thaw cycles | Initial Viscosity (KU) [1]: 85.2 KU

CCC(O)CN(CC(O)CC)C(C)(C)CO (stereo not shown) [AMP-2BO, 1,1′-((1-hydroxy-2-methylpropan-2-yl)azanediyl)bis(butan-2-ol)]
pKa [2]: 9.1

CC(C)OCC(O)CNC(CO)(CO)CO (stereo not shown) [TA-IPM, 2-((2-hydroxy-3-isopropoxypropyl)amino)-2-(hydroxymethyl)propane-1,3-diol]
Percent VOC measured on the crude amine sample [3]: 8.7% | VOC classification according to ASTM D6886-rev protocol [3]: zero VOC | pKa [2]: 7.8

OCCN(CCO)C1CCCCC1O (stereo not shown) [DEA-CyHO, 2,2′-((2-hydroxycyclohexyl)azanediyl)diethanol]
pKa [2]: 8.6
